Consider 23 compounds from patent US12145913B2, “Inhibition of Olig2 activity” (Curtana Pharmaceuticals, Inc., priority 2016, dated 2024).

Structures are written as SMILES. Where only a bound is given, the exact number is not on record here.

The term IC50 denotes the concentration that gives 50% inhibition.

The assay deals with GBM8 human glioblastoma cells. Put plainly: GBM8 viability assay (Cell Titer Glo). As to conditions: 72 h, Table 1, 3 days incubation, luminescence. The class given is cell-based. Here is the method: Cell culture medium was prepared from a NSA proliferation kit (Neurocult) and NeuroCult supplements (Stemcell Tech Cat. #05751) and treated with 20 μL of 10 μg/mL rh EGF, 10 μL of 10 μg/mL rh bFGF and 10 μL of 0.2% Heparin. In this medium, human glioblastoma cells were cultured in ultra-low attachment tissue culture flasks until 1×10^6 cells ml was achieved (GBM4 and GBM8 are distinct neurosphere cell cultures derived from these human patient tissues). GBM4 and GBM8 cells were dissociated and 10 mL of media containing 4000 human glioblastoma cells per 90 μL were transferred to an ultra-low binding 96-well plate and incubated at 37° C. overnight. On the following day, 10 μL of a 1% DMSO solution of test compound in assay medium was added to wells containing the cell suspension and the mixture incubated at 37° C. for 3 days. At this time, the plate was removed from the incubator and allowed to reach room temperature. After about 30 minutes, 50 μL of Cell Titer Glo solution was added to each well and the plate shaken for 1 minute at low speed. After 10 minutes luminescence was recorded using a Tecan Safire2 reader.
Reduction in luminescence compared to DMSO only control wells was used to determine the percentage inhibition of cell growth. IC50s were calculated using the % inhibition of luminescence for serial dilutions of compounds fitted to a 4-parameter fit within the Prism (San Diego) curve fitting program. Tables 1 (compounds 3-188) and 2 (compounds 190-212) show the GBM4 IC50 and GBM8 IC50 for compounds described herein.
In general terms: In ATP-based viability assays light output follows the ATP content of the culture.
As to `Cc1cc(NCCN)nc(NC(=O)Nc2ccc3ccccc3c2)n1` [Compound 5, 1-(4-((2-aminoethyl)amino)-6-methylpyrimidin-2-yl)-3-(naphthalen-2-yl)urea], the IC50 is less than 500 nM.

In turn, `Cc1cc(NCCN(C)C)nc(NC(=O)Nc2ccc3ccccc3c2)n1` [Compound 6] came in with an IC50 of less than 500 nM.

In turn, `Cc1cc(NCCO)nc(NC(=O)Nc2ccc3ccccc3c2)n1` [Compound 8] displayed an IC50 of less than 500 nM.

Compound `CNCCCN(C)c1cc(C)nc(NC(=O)Nc2ccc3ccccc3c2)n1` [Compound 9] yielded an IC50 of 500 to 5000 nM.

Compound `Cc1cc(NCCCCN)nc(NC(=O)Nc2ccc3ccccc3c2)n1` [Compound 10] gave a half-maximal inhibitory concentration (IC50) of less than 500 nM.

Consider `Cc1cc(NCC2CCCN(C)C2)nc(NC(=O)Nc2ccc3ccccc3c2)n1` (centres unmarked) [Compound 11], for which the half-inhibitory concentration (IC50) was 500 to 5000 nM.

As for `CCCNc1cc(C)nc(NC(=O)Nc2ccc3ccccc3c2)n1` [Compound 12], the IC50 was less than 500 nM.

Consider `Cc1cc(NCCOCCO)nc(NC(=O)Nc2ccc3ccccc3c2)n1` [Compound 13], for which the half-inhibitory concentration (IC50) is less than 500 nM.

Compound `Cc1cc(NCC(C)O)nc(NC(=O)Nc2ccc3ccccc3c2)n1` (centres unmarked) [Compound 14] showed a half-maximal inhibitory concentration (IC50) of less than 500 nM.

The compound `Cc1cc(NCCc2ccccn2)nc(NC(=O)Nc2ccc3ccccc3c2)n1` [Compound 15] registered an IC50 of 5000 to 30000 nM.

On to `Cc1cc(NCCCc2ccccn2)nc(NC(=O)Nc2ccc3ccccc3c2)n1` [Compound 16], for which the IC50 is less than 500 nM.

As for `Cc1cc(NCCCCN(C)C)nc(NC(=O)Nc2ccc3ccccc3c2)n1` [Compound 17], the IC50 was less than 500 nM.

`Cc1cc(NCC(O)CO)nc(NC(=O)Nc2ccc3ccccc3c2)n1` (centres unmarked) [Compound 18] gave an IC50 of less than 500 nM.

In the case of `CNc1cc(C)nc(NC(=O)Nc2ccc3ccccc3c2)n1` [Compound 20], the IC50 was less than 500 nM.

`Cc1cc(N(C)C)nc(NC(=O)Nc2ccc3ccccc3c2)n1` [Compound 21] came in with an IC50 of 500 to 5000 nM.

Compound `Cc1cc(NCCc2ncc[nH]2)nc(NC(=O)Nc2ccc3ccccc3c2)n1` [Compound 22, 1-(4-((2-(1H-imidazol-2-yl)ethyl)amino)-6-methylpyrimidin-2-yl)-3-(naphthalen-2-yl)urea] gave an IC50 of less than 500 nM.

Regarding `Cc1cc(NCCCc2ncc[nH]2)nc(NC(=O)Nc2ccc3ccccc3c2)n1` [Compound 23, 1-(4-((3-(1H-imidazol-2-yl)propyl)amino)-6-methylpyrimidin-2-yl)-3-(naphthalen-2-yl)urea], the IC50 is less than 500 nM.

With `Cc1cc(NCCc2ccc[nH]2)nc(NC(=O)Nc2ccc3ccccc3c2)n1` [Compound 24, 1-(4-((2-(1H-pyrrol-2-yl)ethyl)amino)-6-methylpyrimidin-2-yl)-3-(naphthalen-2-yl)urea], the half-inhibitory concentration (IC50) was less than 500 nM.

As to `COC(=O)CCNc1cc(C)nc(NC(=O)Nc2ccc3ccccc3c2)n1` [Compound 25, methyl 3-((6-methyl-2-(3-(naphthalen-2-yl)ureido)pyrimidin-4-yl)amino)propanoate], the 50% inhibitory concentration (IC50) was less than 500 nM.

Regarding `Cc1cc(NCCC(N)=O)nc(NC(=O)Nc2ccc3ccccc3c2)n1` [Compound 26, 3-((6-methyl-2-(3-(naphthalen-2-yl)ureido)pyrimidin-4-yl)amino)propanamide], the IC50 was less than 500 nM.

With `Cc1cc(NCC(F)(F)CO)nc(NC(=O)Nc2ccc3ccccc3c2)n1` [Compound 27, 1-(4-((2,2-difluoro-3-hydroxypropyl)amino)-6-methylpyrimidin-2-yl)-3-(naphthalen-2-yl)urea], the IC50 was less than 500 nM.

For `Cc1cc(NCCOCCN(C)C)nc(NC(=O)Nc2ccc3ccccc3c2)n1` [Compound 28, 1-(4-((2-(2-(dimethylamino)ethoxy)ethyl)amino)-6-methylpyrimidin-2-yl)-3-(naphthalen-2-yl)urea], the IC50 is less than 500 nM.

As for `CNCCNc1cc(C)nc(NC(=O)Nc2ccc3ccccc3c2)n1` [Compound 30, 1-(4-methyl-6-((2-(methylamino)ethyl)amino)pyrimidin-2-yl)-3-(naphthalen-2-yl)urea], the half-maximal inhibitory concentration (IC50) was less than 500 nM.
